Assay results as given in PubChem BioAssay (NCI).
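In this assay, cells in 96-well plates receive the compound at five concentrations for 48 hours. Endpoints are linearly interpolated between the surrounding concentrations. TGI marks complete inhibition of growth.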

Assays:
Assay in all cases: DTP human tumour cell line panel, 48 h
MOLT-4 leukemia = system: MOLT-4 leukemia
NCI-H226 lung = system: NCI-H226 lung
K-562 leukemia = system: K-562 leukemia
A498 renal = system: A498 renal
KM12 colon = system: KM12 colon
SK-MEL-5 melanoma = system: SK-MEL-5 melanoma
BT-549 breast = system: BT-549 breast
SW-620 colon = system: SW-620 colon
M14 melanoma = system: M14 melanoma
EKVX NSCLC = system: EKVX NSCLC
UACC-62 melanoma = system: UACC-62 melanoma
HOP-92 NSCLC = system: HOP-92 NSCLC
PC-3 prostate = system: PC-3 prostate
DU-145 prostate = system: DU-145 prostate
HT29 colon = system: HT29 colon
SR leukemia = system: SR leukemia
RXF 393 renal = system: RXF 393 renal
OVCAR-8 ovarian = system: OVCAR-8 ovarian
HL-60(TB) leukemia = system: HL-60(TB) leukemia
MALME-3M melanoma = system: MALME-3M melanoma

Structure (SMILES) | TGI (MOLT-4 leukemia) | TGI (NCI-H226 lung) | TGI (K-562 leukemia) | TGI (A498 renal) | TGI (KM12 colon) | TGI (SK-MEL-5 melanoma) | TGI (BT-549 breast) | TGI (SW-620 colon) | TGI (M14 melanoma) | TGI (EKVX NSCLC) | TGI (UACC-62 melanoma) | TGI (HOP-92 NSCLC) | TGI (PC-3 prostate) | TGI (DU-145 prostate) | TGI (HT29 colon) | TGI (SR leukemia) | TGI (RXF 393 renal) | TGI (OVCAR-8 ovarian) | TGI (HL-60(TB) leukemia) | TGI (MALME-3M melanoma)
O=c1[nH]/c(=C/c2ccc(OCc3ccccc3)cn2)c(=O)[nH]/c1=C/c1ccc([N+](=O)[O-])cc1 | > 100 µM | > 100 µM | > 100 µM | > 84.3 µM | > 100 µM | > 100 µM | > 100 µM | > 100 µM | > 100 µM | > 100 µM | > 100 µM | > 100 µM | > 100 µM | > 100 µM | > 100 µM | > 100 µM | > 100 µM | > 100 µM | > 100 µM | > 100 µM
Nc1nc(N)c(C2=CCNCC2)c(=O)[nH]1 | > 100 µM | > 100 µM | > 100 µM | > 100 µM | > 100 µM | > 100 µM | > 100 µM | > 100 µM | > 100 µM | > 100 µM | > 100 µM | > 100 µM | > 100 µM | > 100 µM | > 100 µM | > 100 µM | > 100 µM | > 100 µM | > 100 µM | > 100 µM
CC(=O)Nc1ccc(NC(=O)c2c(Cl)c(Cl)c(Cl)c(Cl)c2-c2nc3ccccc3[nH]2)cc1 | 98.7 µM | > 100 µM | > 100 µM | > 100 µM | > 100 µM | > 100 µM | > 100 µM | > 100 µM | > 100 µM | > 100 µM | > 100 µM | 71.7 µM | > 100 µM | > 100 µM | > 100 µM | > 100 µM | 81.5 µM | > 100 µM | 67.6 µM | > 100 µM
COC(=O)C1(c2cc3ccccc3n2S(=O)(=O)c2ccccc2)CC2C=CC1NC2 (stereo not given) | 4.95 µM | 21.4 µM | 5.01 µM | 13 µM | 8.29 µM | 16.7 µM | 6.48 µM | > 21.7 µM | 3.44 µM | 15.1 µM | 3.31 µM | 4.12 µM | 3.05 µM | 6.62 µM | 4.44 µM | 0.427 µM | 3.5 µM | 4.42 µM | 4.71 µM | > 22.8 µM
